What was measured:
[1] = system: TNF-α-induced VCAM-1 expression on human endothelial cells; assay: Cell-ELISA for VCAM-1 expression; type: cell-based; conditions: added 2–4 h prior to TNF-α stimulation; data not shown
Experimental: (§1) The endothelial cells were incubated with or without MPG and its derivatives at various concentrations for 2 h followed by treatment with TNF-α (10 ng/ml) for 16 h for ICAM-1 and VCAM-1 expression and 4 h for E-selectin expression. A Cell-ELISA was used to assess the expression of ICAM-1, VCAM-1 and E-selectin on the surface of endothelial cells as described previously.

[2] = system: IκBα in endothelial cells; assay: IκBα phosphorylation and degradation western blot; type: cell-based, human; conditions: 400 µM, TNF-α 30 mins
Experimental: (§2) Nuclear and cytoplasmic extracts were fractionated on SDS-PAGE with equal amount of proteins per well and transferred onto PVDF membranes and those membranes were incubated with appropriate primary antibodies and treated with HRP conjugated secondary antibodies followed by detection with DAB-H2O2 system. β-tubulin, α-actin and Lamin B1 were used as loading controls. Antibodies against NF-κBp65, phosphoNF-κBp65, IκBα, phosphoIκBα, IKK-β, Akt, phosphoAkt (Ser473) and phosphoAkt (Thr308) were used.

[3] = system: TNF-α-induced ICAM-1 expression on human endothelial cells; assay: Cell-ELISA for ICAM-1 expression; type: cell-based
Experimental: as §1

[4] = system: TNF-α-induced IKK-β activation in HUVECs; assay: IKK-β activation in treated cells (immunoprecipitation, kinase assay); type: cell-based, human
Experimental: In brief, confluent HUVECs were incubated with or without MPTAG and were stimulated with TNF-α (10 ng/ml) for 15 mins. The cells were washed and lysed in Lysis buffer containing 50 mM HEPES, pH 7.6, 10% glycerol, 1 mM sodium orthovanadate, 100 mM NaCl, 1% NP-40, 1 mM EDTA and protease inhibitor cocktail and allowed to swell on ice for 45 mins. Following centrifugation at 13,000 rpm for 45 mins, the supernatants were collected as “total cell extracts” and stored at −70°C. Immunoprecipitation was performed as per the instructions of Protein G immunoprecipitation kit (Sigma Aldrich, USA). Endogenous IKK complexes were immunoprecipitated in the following reaction mixtures: 100–300 µg of total cell extracts were incubated with 2–4 µg anti-IKK-β or PKAα antibody in 100 µl 1× IP buffer. After incubation for 16 h at 4°C with constant shaking, 50 µl of activated protein G beads were added and the mixture was incubated under rotation for an additional 3 h at 4°C.
Kinase assay was performed as previously described. Immunoprecipitates from 100 µg of total cell extracts were used for kinase assays. The reaction mixture consisted of kinase buffer (20 mM Tris Cl, pH 7.6, 1 mM EDTA, 1 mM sodium orthovanadate, 20 mM MgCl2, 2 mM DTT), 2 µg GST-IκBα(1–54), 5 µM ATP and 1 µCi [γ ^32P] ATP in a volume of 30 µl. […]

[5] = system: VCAM-1 mRNA in endothelial cells; assay: RT-PCR of VCAM-1 transcript; type: cell-based, human; conditions: 400 µM pretreatment, TNF-α 10 ng/ml 4 h
Experimental: (§3) In order to examine whether MPTAG reduced the mRNA transcript levels of cell adhesion molecules genes, the endothelial cells were pretreated with 400 µM MPTAG for 2 h before induction with TNF-α for 4 h followed by RT-PCR. RNA was isolated from MPTAG-treated cells according to a modified guanidinium thiocyanate procedure. The expression of the transcripts for ICAM-1, VCAM-1 and E-selectin was evaluated by RT-PCR [45]. β-Actin levels expressed under similar conditions were used as a loading control.

[6] = system: ICAM-1 mRNA in endothelial cells; assay: RT-PCR of ICAM-1 transcript; type: cell-based, human; conditions: 400 µM pretreatment, TNF-α 10 ng/ml 4 h
Experimental: as §3

[7] = system: human endothelial cells (HUVECs); assay: MTT cytotoxicity assay; type: cell-based
Experimental: The cytotoxicity of MPG and its derivatives was analyzed by colorimetric assay using MTT (Thiazolyl blue tetrazolium bromide) reagent as described previously. All experiments were performed at least 3 times in triplicate wells. From this assay, the percentage viability (% viability) of the cells at various concentrations of each compound was determined by normalization to control wells that contained cells incubated in vehicle (0.25% DMSO or cell culture medium) and which were considered 100% viable. The highest concentration at which the viability of the cells was >95% was denoted as the maximum tolerable concentration for that compound.

[8] = system: NF-κB p65 phosphorylation in endothelial cells; assay: p65 phosphorylation western blot; type: cell-based, human; conditions: 400 µM pretreatment
Experimental: as §2

[9] = system: ERK1/2; assay: ERK1/2 activation western blot; type: cell-based, human; conditions: MPTAG pretreatment
[10] = system: p38 MAPK; assay: p38 MAPK activation western blot; type: cell-based, human; conditions: MPTAG pretreatment
[11] = Aqueous solubility of MPG derivatives; type: physicochemical
Experimental: Stock solutions of MPG and its derivatives (Tables S1, S2, S3) were prepared either in dimethylsulphoxide (DMSO) or cell culture medium. MPG and its derivatives were diluted to working concentrations in cell culture medium.

[12] = system: NF-κB-dependent reporter gene transcription in HUVECs; assay: NF-κB reporter gene assay (luciferase); type: cell-based, human; conditions: 400 µM, TNF-α 10 ng/ml
Experimental: NF-κB dependent reporter gene transcription was measured as per the instructions of the luciferase assay kit (Promega, USA). Briefly, human endothelial cells ([…]) were plated in 96-well plates. HUVECs were transiently transfected by electroporation with a NF-κB-containing luciferase reporter gene plasmid for 24 h. After transfection, cells were washed and treated with 400 µM MPTAG for 24 h. For the TNF-α stimulation, cells were treated with 10 ng/ml of TNF-α for another 24 h. Supernatants after cell lysis were assayed for luciferase activity. The mean value for cells treated with no MPTAG and no TNF-α was set to 1, and -fold differences were determined by comparing values against this set value. Cells were co-transfected with a control vector expressing β-galactosidase under SV40 promoter to normalize transfection efficiency.

[13] = system: E-selectin mRNA in endothelial cells; assay: RT-PCR of E-selectin transcript; type: cell-based, human; conditions: 400 µM pretreatment, TNF-α 10 ng/ml 4 h
Experimental: as §3

CC(=O)OC[C@H]1O[C@@H](Oc2c(C)occc2=O)[C@H](OC(C)=O)[C@@H](OC(C)=O)[C@@H]1OC(C)=O [MPTAG, 2-methyl-pyran-4-one-3-O-β-D-2′,3′,4′,6′-tetra-O-acetyl glucopyranoside]
inhibition of VCAM-1 [1]: maximum inhibition | TNF-α-induced degradation of IκBα [2]: inhibited | TNF-α-induced phosphorylation of IκBα [2]: inhibited | inhibition of ICAM-1 ([3]; added 2–4 h prior to TNF-α stimulation, data not shown): maximum inhibition | rank among derivatives for inhibition of TNF-α-induced ICAM-1, VCAM-1, E-selectin expression and neutrophil adhesion ([3]; human endothelial cells, Table S2): most active derivative | TNF-α-induced activation of IKK-β ([4]; pretreatment of cells, dose-dependent): appreciably suppressed | protein levels of IKK-β ([4]; western blot): neither TNF-α nor MPTAG affected | TNF-α-induced VCAM-1 mRNA level [5]: significantly reduced | TNF-α-induced ICAM-1 mRNA level [6]: significantly reduced | morphology and viability in HUVECs ([7]; 400 µM): without affecting | cytotoxicity compared to parent compound MPG and the other two derivatives ([7]; MTT, human endothelial cells): less cytotoxic | TNF-α-induced p65 phosphorylation in the cytoplasm [8]: inhibits p65 phosphorylation | TNF-α-induced ERK activation [9]: no effect | TNF-α-induced p38 activation [10]: no effect | water solubility [11]: completely water soluble | NF-κB-regulated luciferase activity [12]: significantly inhibited | TNF-α-induced E-selectin mRNA level [13]: significantly reduced

— PMC3465347, “Regulation of NF-κB Activation through a Novel PI-3K-Independent and PKA/Akt-Dependent Pathway in Human Umbilical Vein Endothelial Cells” (PLoS ONE, 2012)
